# Assays:
# Assay type in all cases: in vivo
# [1] = test system: Stellaria media; assay: greenhouse post-emergence treatment, STEME; details: 20 DAT, mesosulfuron solo 1 gai/ha
# Outline: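 Mixtures formulated as 10% by weight emulsion concentrates, applied in water post-emergence to plants of 3–15 cm. Cool-season species held at 10-25° C., warm-season at 20-35° C.; rating 0 (no damage) to 100 (destruction).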
# [2] = test system: Matricaria chamomilla; assay: greenhouse post-emergence treatment, MATCH
# Outline: (§1)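 Each species was grown separately and treated once it reached 3 to 15 cm, using actives suspended or emulsified in water. Plants were kept at 10-25° C. or 20-35° C., depending on species. Damage is a 0–100 rating taken during 2 to 4 weeks.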
# [3] = test system: Lolium multiflorum; assay: greenhouse post-emergence treatment, LOLMU
# Outline: (§2)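 Visual damage score 0–100 (0 = normal growth; 100 = no emergence/above-ground parts destroyed), read 2–4 wk post-treatment. Loamy sand, ~3.0% humus; seedlings grown in place or transplanted days before spraying; water as solvent; 10-25° C. or 20-35° C. per species. Combination expectations by Colby: E=X+Y−(X·Y/100).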
# [4] = test system: Echinocloa crus-galli; assay: greenhouse post-emergence treatment, ECHCG
# Experimental: (§3) The culture containers used were plastic pots containing loamy sand with approximately 3.0% of humus as substrate. The seeds of the test plants were sown separately for each species.
# (§4) For the post-emergence treatment, the test plants were grown to a plant height of from 3 to 15 cm, depending on the plant habit, and only then treated with the active compounds which had been suspended or emulsified in water. To this end, the test plants were either sown directly, and grown in the same containers, or they were first grown separately as seedlings and transplanted into the test containers a few days prior to treatment.
# (§5) Depending on the species, the plants were kept at 10-25° C. and 20-35° C., respectively.
# (§6) The test period extended over 2 to 4 weeks. During this time, the plants were tended and their response to the individual treatments was evaluated.
# (§7) Evaluation was carried out using a scale from 0 to 100. 100 means no emergence of the plants, or complete destruction of at least the above-ground parts, and 0 means no damage or normal course of growth. A good herbicidal activity is given at values of at least 70, and very good herbicidal activity is given at values of at least 85.
# (§8) The respective stated components A and B, and if appropriate, C were formulated as a 10% by weight strength emulsion concentrate and, with addition of the amount of solvent system, introduced into the spray liquor used for applying the active compound. In the examples, the solvent used was water.
# (§9) In the examples below, using the method of S. R. Colby (1967) “Calculating synergistic and antagonistic responses of herbicide combinations”, Weeds 15, p. 22ff., the value E, which is expected if the activity of the individual active compounds is only additive, was calculated. E=X+Y−(X·Y/100) where X=effect in percent using herbicide A at an application rate a; • Y=effect in percent using herbicide B at application rate b; • E=expected effect (in %) of herbicide A+herbicide B at application rates a+b.
# [5] = test system: Papaver rhoeas; assay: greenhouse post-emergence treatment, PAPRH
# Outline: as §1
# [6] = test system: Digitaria sanguinalis; assay: greenhouse post-emergence treatment, DIGSA
# Outline: as §2
# [7] = test system: Polygonum convolvulus; assay: greenhouse post-emergence treatment, POLCO
# Experimental: as §3, §4, §5, §6, §7, §8, §9
# [8] = test system: Ambrosia elatior; assay: greenhouse post-emergence treatment, AMBEL
# Experimental: as §3, §4, §5, §6, §7, §8, §9
# [9] = test system: Setaria viridis; assay: greenhouse post-emergence treatment, SETVI
# Outline: as §2
# [10] = test system: Galium aparine; assay: greenhouse post-emergence treatment, GALAP; details: 20 DAT
# Outline: as §1
# [11] = test system: Poa annua; assay: greenhouse post-emergence treatment, POAAN; details: 21 DAT
# Experimental: as §3, §4, §5, §6, §7, §8, §9
# [12] = test system: Apera spica-venti; assay: greenhouse post-emergence treatment, APESV; details: 21 DAT
# Experimental: as §3, §4, §5, §6, §7, §8, §9
# [13] = test system: Alopecurus myosuroides; assay: greenhouse post-emergence treatment, ALOMY; details: 21 DAT
# Outline: as §2
# [14] = test system: Bromus sterilis; assay: greenhouse post-emergence treatment, BROST; details: 21 DAT
# Outline: as §2
# [15] = 20 DAT, mesosulfuron solo 1 gai/ha
# [16] = 20 DAT, mesosulfuron solo 2 gai/ha
# [17] = 20 DAT, mesosulfuron solo 8 gai/ha
# [18] = 20 DAT, mesosulfuron solo 4 gai/ha
# [19] = 21 DAT, topramezone solo 6 gai/ha
# [20] = 21 DAT, topramezone solo 3 gai/ha
# [21] = 21 DAT, topramezone solo 12 gai/ha
# [22] = 21 DAT, topramezone solo 24 gai/ha
compound,measurement,setting,value
COC(=O)c1ccc(CNS(C)(=O)=O)cc1S(=O)(=O)NC(=O)Nc1nc(OC)cc(OC)n1 [mesosulfuron],% activity,[1],95%
same,% activity,[2]; [15],30%
same,% activity,[2]; [16],30%
same,% activity,[2]; [17],90%
same,% activity,"[2]; 20 DAT, mesosulfuron solo 9 gai/ha",90%
same,% activity,"[2]; mesosulfuron solo (Mesosulfuron - Methyl WG […]), 2 gai/ha, 20 DAT, MATCH",30%
same,% activity,[3]; [17],90%
same,% activity,[4]; [16],0%
same,% activity,[5]; [15],70%
same,% activity,[5]; [16],90%
same,% activity,[5]; [17],98%
same,% activity,"[5]; mesosulfuron solo (Mesosulfuron - Methyl WG […]), 1 gai/ha, 20 DAT, PAPRH",70%
same,% activity,[6]; [15],0%
same,% activity,[6]; [16],0%
same,% activity,[6]; [18],20%
same,% activity,[7]; [16],30%
same,% activity,[8]; [16],80%
same,% activity,[8]; [18],85%
same,% activity,[9]; [17],85%
same,% activity,"[9]; mesosulfuron solo (Mesosulfuron - Methyl WG […]), 8 gai/ha, 20 DAT, SETVI",85%
same,% activity,[10]; mesosulfuron solo 4 gai/ha,65%
same,% activity,[10]; mesosulfuron solo 8 gai/ha,75%
same,% activity,"[10]; mesosulfuron solo (Mesosulfuron - Methyl WG […]), 1 gai/ha, GALAP",55%
same,% activity,"[10]; mesosulfuron solo (Mesosulfuron - Methyl WG […]), 2 gai/ha, GALAP",65%
same,% activity,"[10]; mesosulfuron solo (Mesosulfuron - Methyl WG […]), 4 gai/ha, GALAP",65%
same,% activity,"[10]; mesosulfuron solo (Mesosulfuron - Methyl WG […]), 8 gai/ha, GALAP",75%
Cc1c(C(=O)c2cnn(C)c2O)ccc(S(C)(=O)=O)c1C1=NOCC1 [topramezone],% activity,[11]; topramezone solo 3 gai/ha,0%
same,% activity,[11]; topramezone solo 6 gai/ha,0%
same,% activity,[11]; topramezone solo 12 gai/ha,0%
same,% activity,[11]; topramezone solo 24 gai/ha,0%
same,% activity,"[11]; POAAN, solo topramezone (SC 336 g/l) 3 gai/ha",0%
same,% activity,"[11]; POAAN, solo topramezone (SC 336 g/l) 6 gai/ha",0%
same,% activity,"[11]; POAAN, solo topramezone (SC 336 g/l) 12 gai/ha",0%
same,% activity,"[11]; POAAN, solo topramezone (SC 336 g/l) 24 gai/ha",0%
same,% activity,[2]; [19],30%
same,% activity,[3]; [20],0%
same,% activity,[3]; [19],0%
same,% activity,[3]; [21],10%
same,% activity,[3]; [22],20%
same,% activity,"[3]; LOLMU, solo topramezone (SC 336 g/l) 6 gai/ha, 21 DAT",0%
same,% activity,"[4]; ECHCG, solo topramezone (SC 336 g/l) 3 gai/ha, 21 DAT",70%
same,% activity,"[4]; ECHCG, solo topramezone (SC 336 g/l) 12 gai/ha, 21 DAT",98%
same,% activity,"[4]; ECHCG, solo topramezone (SC 336 g/l) 24 gai/ha, 21 DAT",98%
same,% activity,[5]; [21],20%
same,% activity,[5]; [22],40%
same,% activity,"[5]; PAPRH, solo topramezone (SC 336 g/l) 3 gai/ha, 21 DAT",0%
same,% activity,"[5]; PAPRH, solo topramezone (SC 336 g/l) 6 gai/ha, 21 DAT",0%
same,% activity,[6]; [20],75%
same,% activity,[12]; topramezone solo 3 gai/ha,0%
same,% activity,[12]; topramezone solo 6 gai/ha,0%
same,% activity,[12]; topramezone solo 12 gai/ha,30%
same,% activity,[13]; topramezone solo 3 gai/ha,0%
same,% activity,[13]; topramezone solo 6 gai/ha,0%
same,% activity,[13]; topramezone solo 12 gai/ha,0%
same,% activity,[13]; topramezone solo 24 gai/ha,10%
same,% activity,"[13]; ALOMY, solo topramezone (SC 336 g/l) 3 gai/ha",0%
same,% activity,"[13]; ALOMY, solo topramezone (SC 336 g/l) 6 gai/ha",0%
same,% activity,"[13]; ALOMY, solo topramezone (SC 336 g/l) 12 gai/ha",0%
same,% activity,[7]; [20],0%
same,% activity,[7]; [19],30%
same,% activity,[7]; [21],30%
same,% activity,[7]; [22],85%
same,% activity,[14]; topramezone solo 3 gai/ha,0%
same,% activity,[14]; topramezone solo 6 gai/ha,0%
same,% activity,[14]; topramezone solo 12 gai/ha,5%
same,% activity,[14]; topramezone solo 24 gai/ha,25%
same,% activity,[8]; [19],95%
same,% activity,[9]; [20],70%
